The results in this text go back to patent US20170273922A1, “UREA AND BIS-UREA BASED COMPOUNDS AND ANALOGUES THEREOF USEFUL IN THE TREATMENT OF ANDROGEN RECEPTOR MEDIATED DISEASES OR DISORDERS” (THE ROYAL INSTITUTION FOR THE ADVACEMENT OF LEARNING/MCGILL …, priority 2014, published 2017).

Changes are numbered by the printed parent chain. “Also recorded” adds a separate entry of the source.

Data set [1] has as its system 22Rv1 cells. Description: MTT assay (cytotoxicity), 22Rv1 cells. The format is cell-based. The note with it: 22Rv1 cells, 72 h, Table 4.2. The method, boiled down:
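Cells grown in RPMI 1640 with 10% FBS were seeded at 6-7×10^3 per well, left overnight, then exposed to test compounds at designated concentrations or DMSO vehicle for 72 h in fresh medium. Viability was read by MTT; triplicates, repeated at least twice.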
On the technique in general: Formazan colour is commonly taken as a measure of viable cells.

Data set [2] has as its target T1, WT full-length AR (Homo sapiens, UniProt P10275).
T1 sequence (P10275 1-920): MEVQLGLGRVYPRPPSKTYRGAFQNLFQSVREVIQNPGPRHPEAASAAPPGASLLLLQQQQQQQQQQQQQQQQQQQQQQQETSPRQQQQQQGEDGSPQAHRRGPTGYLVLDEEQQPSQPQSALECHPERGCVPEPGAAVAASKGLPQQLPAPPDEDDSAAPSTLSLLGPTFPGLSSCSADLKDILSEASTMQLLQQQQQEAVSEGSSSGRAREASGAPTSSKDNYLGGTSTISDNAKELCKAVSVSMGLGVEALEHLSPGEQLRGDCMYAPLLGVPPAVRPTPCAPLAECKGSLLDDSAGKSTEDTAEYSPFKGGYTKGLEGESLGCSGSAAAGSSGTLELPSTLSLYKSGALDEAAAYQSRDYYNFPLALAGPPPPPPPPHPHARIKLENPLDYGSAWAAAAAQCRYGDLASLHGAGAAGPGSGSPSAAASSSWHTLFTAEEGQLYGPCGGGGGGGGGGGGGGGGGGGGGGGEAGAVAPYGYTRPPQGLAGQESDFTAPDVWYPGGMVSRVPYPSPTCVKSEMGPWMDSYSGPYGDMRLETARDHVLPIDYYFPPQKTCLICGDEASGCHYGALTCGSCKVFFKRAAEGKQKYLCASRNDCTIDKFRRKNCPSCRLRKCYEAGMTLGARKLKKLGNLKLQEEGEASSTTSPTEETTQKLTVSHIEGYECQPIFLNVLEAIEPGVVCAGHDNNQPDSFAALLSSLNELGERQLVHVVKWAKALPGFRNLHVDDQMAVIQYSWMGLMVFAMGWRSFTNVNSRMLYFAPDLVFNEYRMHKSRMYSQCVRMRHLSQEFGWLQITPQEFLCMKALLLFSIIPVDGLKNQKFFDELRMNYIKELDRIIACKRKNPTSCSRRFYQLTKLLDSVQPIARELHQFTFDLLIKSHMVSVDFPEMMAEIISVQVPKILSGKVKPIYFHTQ
As to the kind of experiment: WT full-length AR PSA-luc reporter assay (DHT-induced) in transfected cells. The note with it: 24 h; for inhibition of DHT-induced activation of WT full-length AR (PSA-luc): 10 nM DHT; for agonism of full-length AR WT (PSA-luc): absence of DHT, PC3 cells. Background: In a reporter assay the amount or activity of a reporter protein is the signal.

The target of data set [3] is T2, H874Y mutant of full-length AR (Homo sapiens, UniProt P10275, H875Y).
T2 sequence (P10275 1-920 H875Y): T1 sequence (P10275 1-920) with H875Y
Description: AR H874Y mutant PSA-luc reporter assay in PC3 cells. Type of data set: cell-based. The note with it: for inhibition of DHT-induced transactivation of H874Y mutant AR (PSA-luc): 10 nM DHT, PC3 cells, 24 h.

As a reminder, the IC50 is the concentration at which inhibition is half-maximal. A lower IC50 goes with greater potency. The molecule `N#Cc1ccc(NC(=O)Nc2cccc(C(F)(F)F)c2)cc1C(F)(F)F` [Compound 467] returned an IC50 in data set [1] of 1.7 µM. For the same molecule, in data set [2], the “inhibition of DHT-induced activation of WT full-length AR (PSA-luc)” value (shortened to “inhibition … of WT full-length AR (PSA-luc)”) is listed as “dose-dependently suppressed; also recorded: dose-dependently inhibit” and the “agonism of full-length AR WT (PSA-luc)” value was “non-agonist”. In addition, in data set [3], the “agonism of AR H874Y mutant” value is given as “non-agonist” and the “inhibition of DHT-induced transactivation of H874Y mutant AR (PSA-luc)” value (shortened to “inhibition … of H874Y mutant AR (PSA-luc)”) is reported as “dose-dependently suppressed; also recorded: dose-dependently inhibit”.

`N#Cc1ccc(NC(=O)Nc2cccc(C(F)(F)F)c2)cc1Cl` [Compound 492]: the half-maximal inhibitory concentration (IC50) in data set [1] turned out to be 1.9 µM. In data set [2], the “inhibition … of WT full-length AR (PSA-luc)” value is reported as “dose-dependently suppressed; also recorded: dose-dependently inhibit” and the “agonism of full-length AR WT (PSA-luc)” value is “non-agonist”. In addition, in data set [3], the “agonism of AR H874Y mutant” value was “non-agonist” and the “inhibition … of H874Y mutant AR (PSA-luc)” value is given as “dose-dependently suppressed; also recorded: dose-dependently inhibit”.

In the case of `O=C(N/C=C/c1cccc(C(F)(F)F)c1)Nc1ccncn1` [Compound 562], the “inhibition … of WT full-length AR (PSA-luc)” value in data set [2] was “dose-dependently inhibit”. The “inhibition … of H874Y mutant AR (PSA-luc)” value in data set [3] was “inhibit”.

Take `O=C(Nc1cccc(C(F)(F)F)c1)Nc1ccc([N+](=O)[O-])c(C(F)(F)F)c1` [Compound 442]: the IC50 in data set [1] is 1.5 µM. In data set [2], the “inhibition … of WT full-length AR (PSA-luc)” value is recorded as “dose-dependently suppressed; also recorded: dose-dependently inhibit” and the “agonism of full-length AR WT (PSA-luc)” value was “non-agonist”. In data set [3], the “agonism of AR H874Y mutant” value was “non-agonist” and the “inhibition … of H874Y mutant AR (PSA-luc)” value is given as “dose-dependently suppressed; also recorded: dose-dependently inhibit”.

With `O=C(Nc1cccc(C(F)(F)F)c1)Nc1ccc(NC(=O)c2ccccc2F)c(C(F)(F)F)c1` [Compound 746], in data set [2], the “inhibition … of WT full-length AR (PSA-luc)” value is on record as “dose-dependently inhibit”. For the same molecule, the “inhibition … of H874Y mutant AR (PSA-luc)” value in data set [3] is “inhibit”.
